According to US10533010B2, “Substituted indole Mcl-1 inhibitors” (Vanderbilt University, priority 2014, dated 2020):

target: recombinant Mcl-1 (residues 172-327) (Homo sapiens (Human), UniProt Q07820); test: Fluorescence polarization anisotropy competition assay (FITC-Bak or FITC-Bim BH3 peptide) with Mcl-1; type: binding; conditions: Table 2; Ki bins given in nM; FITC-Bak or FITC-Bim peptide competition; Ki converted from IC50; read-out: Ki for Inhibition of Mcl-1
Sequence (Q07820 172-327): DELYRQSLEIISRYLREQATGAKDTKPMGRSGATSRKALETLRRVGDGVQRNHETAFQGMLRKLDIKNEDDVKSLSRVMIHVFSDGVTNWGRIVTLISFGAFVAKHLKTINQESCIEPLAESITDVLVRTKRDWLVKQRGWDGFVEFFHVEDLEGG

SMILES	Ki [nM]
Cc1cc(OCCCc2c(C(=O)N3CCN(c4ccc(C(=O)O)cc4)CC3)n(Cc3ccncc3)c3c(-c4c(C)nn(C)c4C)c(Cl)ccc23)cc(C)c1Cl [I-340, 4-(4-(6-chloro-3-(3-(4-chloro-3,5-dimethylphenoxy)propyl)-1-(pyridin-4-ylmethyl)-7-(1,3,5-trimethyl-1H-pyrazol-4-yl)-1H-indole-2-carbonyl)piperazin-1-yl)benzoic acid]	51 to 100
Cc1cc(OCCCc2c(C(=O)Nc3cccc(C(=O)O)c3)[nH]c3c(-c4c(C)nn(CCN5CCOCC5)c4C)c(Cl)ccc23)cc(C)c1Cl [I-191, 3-(6-chloro-3-(3-(4-chloro-3,5-dimethylphenoxy)propyl)-7-(3,5-dimethyl-1-(2-morpholinoethyl)-1H-pyrazol-4-yl)-1H-indole-2-carboxamido)benzoic acid]	< 50
Cc1cc(OCCCc2c(C(=O)NCc3cccn3CC(=O)O)[nH]c3c(-c4c(C)nn(C)c4C)cccc23)cc(C)c1Cl [I-89, 2-(2-((3-(3-(4-chloro-3,5-dimethylphenoxy)propyl)-7-(1,3,5-trimethyl-1H-pyrazol-4-yl)-1H-indole-2-carboxamido)methyl)-1H-pyrrol-1-yl)acetic acid]	< 50
Cc1cc(OCCCc2c3n(c4c(-c5c(C)nn(C)c5C)c(Cl)ccc24)CCCN(Cc2cc(C(=O)O)cc(-c4ccc(O)cc4)c2)C3=O)cc(C)c1Cl [I-306, 5-((8-chloro-1-(3-(4-chloro-3,5-dimethylphenoxy)propyl)-1-oxo-7-(1,3,5-trimethyl-1H-pyrazol-4-yl)-4,5-dihydro-1H-[1,4]diazepino[1,2-a]indol-2(3H)-yl)methyl)-4′-hydroxy-[1,1′-biphenyl]-3-carboxylic acid]	< 50
Cc1cc(OCCCc2c(C(=O)NCc3ccnc(N4CCc5ccccc5C4)c3)[nH]c3c(-c4c(C)nn(C)c4C)cccc23)cc(C)c1Cl [I-263, 3-(3-(4-chloro-3,5-dimethylphenoxy)propyl)-N-((2-(3,4-dihydroisoquinolin-2(1H)-yl)pyridin-4-yl)methyl)-7-(1,3,5-trimethyl-1H-pyrazol-4-yl)-1H-indole-2-carboxamide]	301 to 500
Cc1cc(OCCCc2c3n(c4c(-c5c(C)nn(C)c5C)c(Cl)ccc24)[C@H](C)CN(Cc2ccc(C(=O)O)o2)C3=O)cc(C)c1Cl [I-152, (R)-5-((7-chloro-10-(3-(4-chloro-3,5-dimethylphenoxy)propyl)-4-methyl-1-oxo-6-(1,3,5-trimethyl-1H-pyrazol-4-yl)-3,4-dihydropyrazino[1,2-a]indol-2(1H)-yl)methyl)furan-2-carboxylic acid]	< 50
Cc1cc(OCCCc2c(C(=O)NCCC(=O)NS(=O)(=O)c3cccc([N+](=O)[O-])c3)[nH]c3ccccc23)cc(C)c1Cl [I-21, 3-(3-(4-chloro-3,5-dimethylphenoxy)propyl)-N-(3-((3-nitrophenyl)sulfonamido)-3-oxopropyl)-1H-indole-2-carboxamide]	101 to 299
Cc1cc(OCCCc2c(C(=O)NCc3cccc(C(=O)O)c3)n(C)c3c(-c4c(C)nn(C)c4C)cccc23)cc(C)c1Cl [I-33, 3-((3-(3-(4-chloro-3,5-dimethylphenoxy)propyl)-1-methyl-7-(1,3,5-trimethyl-1H-pyrazol-4-yl)-1H-indole-2-carboxamido)methyl)benzoic acid]	51 to 100
Cc1cc(CN2CCCn3c(c(CCCOc4cc(C)c(Cl)c(C)c4)c4ccc(Cl)c(-c5c(C)nn(C)c5C)c43)C2=O)cc(C(=O)O)c1 [I-297, 3-((8-chloro-11-(3-(4-chloro-3,5-dimethylphenoxy)propyl)-1-oxo-7-(1,3,5-trimethyl-1H-pyrazol-4-yl)-4,5-dihydro-1H-[1,4]diazepino[1,2-a]indol-2(3H)-yl)methyl)-5-methylbenzoic acid]	51 to 100

Other lines, results leading:

Ki [nM]	SMILES
< 50	Cc1cc(OCCCc2c(C(=O)NCc3cccc(C(=O)O)c3)n(CCN3CCOCC3)c3c(-c4c(C)nn(C)c4C)c(Cl)ccc23)cc(C)c1Cl [I-372, 3-((6-chloro-3-(3-(4-chloro-3,5-dimethylphenoxy)propyl)-1-(2-morpholinoethyl)-7-(1,3,5-trimethyl-1H-pyrazol-4-yl)-1H-indole-2-carboxamido)methyl)benzoic acid]
< 50	Cc1cc(OCCCc2c3n(c4c(-c5c(C)nn(C)c5C)c(Cl)ccc24)CCCN(c2cc(Cn4ccnc4)cc(C(=O)O)c2)C3=O)cc(C)c1Cl [I-229, 3-((1H-imidazol-1-yl)methyl)-5-(8-chloro-11-(3-(4-chloro-3,5-dimethylphenoxy)propyl)-1-oxo-7-(1,3,5-trimethyl-1H-pyrazol-4-yl)-4,5-dihydro-1H-[1,4]diazepino[1,2-a]indol-2(3H)-yl)benzoic acid]
< 50	Cc1cc(OCCCc2c3n(c4c(-c5c(C)nn(C)c5C)c(Cl)ccc24)CCCN(c2cc(C(=O)O)cc4nnn(C)c24)C3=O)cc(C)c1Cl [I-362, 7-(8-chloro-11-(3-(4-chloro-3,5-dimethylphenoxy)propyl)-1-oxo-7-(1,3,5-trimethyl-1H-pyrazol-4-yl)-4,5-dihydro-1H-[1,4]diazepino[1,2-a]indol-2(3H)-yl)-1-methyl-1H-benzo[d][1,2,3]triazole-5-carboxylic acid]
< 50	Cc1cc(OCCCc2c3n(c4c(-c5c(C)nn(C)c5C)c(Cl)ccc24)CCN(c2cc(C(=O)O)c4ccn(C)c4c2)C3=O)cc(C)c1Cl [I-162, 6-(7-chloro-10-(3-(4-chloro-3,5-dimethylphenoxy)propyl)-1-oxo-6-(1,3,5-trimethyl-1H-pyrazol-4-yl)-3,4-dihydropyrazino[1,2-a]indol-2(1H)-yl)-1-methyl-1H-indole-4-carboxylic acid]
< 50	Cc1cc(OCCCc2c3n(c4c(-c5c(C)nn(C)c5C)c(Cl)ccc24)C[C@@H](C)N(c2cc(C(=O)O)cc4c2ccn4C)C3=O)cc(C)c1Cl [I-159, (R)-4-(7-chloro-10-(3-(4-chloro-3,5-dimethylphenoxy)propyl)-3-methyl-1-oxo-6-(1,3,5-trimethyl-1H-pyrazol-4-yl)-3,4-dihydropyrazino[1,2-a]indol-2(1H)-yl)-1-methyl-1H-indole-6-carboxylic acid]
< 50	Cc1cc(OCCCc2c(C(=O)N3CCN(c4ccc(C(=O)O)cc4)CC3)n(Cc3ccccn3)c3c(-c4c(C)nn(C)c4C)c(Cl)ccc23)cc(C)c1Cl [I-341, 4-(4-(6-chloro-3-(3-(4-chloro-3,5-dimethylphenoxy)propyl)-1-(pyridin-2-ylmethyl)-7-(1,3,5-trimethyl-1H-pyrazol-4-yl)-1H-indole-2-carbonyl)piperazin-1-yl)benzoic acid]
< 50	Cc1cc(OCCCc2c3n(c4c(-c5c(C)nn(C)c5C)c(Cl)ccc24)CCN(c2cc(C(=O)O)cc4c2ccn4C)C3=O)cc(C)c1Cl [I-163, 4-(7-cholro-10-(3-(4-chloro-3,5-dimethylphenoxy)propyl)-1-oxo-6-(1,3,5-trimethyl-1H-pyrazol-4-yl)-3,4-dihydropyrazino[1,2-a]indol-2(1H)-yl)-1-methyl-1H-indole-6-carboxylic acid]
< 50	Cc1cc(OCCCc2c3n(c4c(-c5c(C)nn(C)c5C)c(Cl)ccc24)CC(C)CN(Cc2ccc(C(=O)O)cc2)C3=O)cc(C)c1Cl (stereo not drawn) [I-133, 4-((8-chloro-11-(3-(4-chloro-3,5-dimethylphenoxy)propyl)-4-methyl-1-oxo-7-(1,3,5-trimethyl-1H-pyrazol-4-yl)-4,5-dihydro-1H-[1,4]diazepino[1,2-a]indol-2(3H)-yl)methyl)benzoic acid]
< 50	Cc1cc(OCCCc2c3n(c4c(-c5c(C)nn(C)c5C)c(Cl)ccc24)[C@H](C)CN(c2cc(C(=O)O)cc4c2ccn4C)C3=O)cc(C)c1Cl [I-170, (R)-4-(7-chloro-10-(3-(4-chloro-3,5-dimethylphenoxy)propyl)-4-methyl-1-oxo-6-(1,3,5-trimethyl-1H-pyrazol-4-yl)-3,4-dihydropyrazino[1,2-a]indol-2(1H)-yl)-1-methyl-1H-indole-6-carboxylic acid]
< 50	Cc1cc(OCCCc2c3n(c4c(-c5c(C)nn(C)c5C)c(Cl)ccc24)CCCN(c2cc(C(=O)O)c4c(Cl)cn(C)c4c2)C3=O)cc(C)c1Cl [I-257, 3-chloro-6-(8-chloro-11-(3-(4-chloro-3,5-dimethylphenoxy)propyl)-1-oxo-7-(1,3,5-trimethyl-1H-pyrazol-4-yl)-4,5-dihydro-1H-[1,4]diazepino[1,2-a]indol-2(3H)-yl)-1-methyl-1H-indole-4-carboxylic acid]
< 50	Cc1cc(OCCCc2c3n(c4c(-c5c(C)nn(C)c5C)c(Cl)ccc24)CCN(Cc2ccc(C(=O)O)cn2)C3=O)cc(C)c1Cl [I-142, 6-((7-chloro-10-(3-(4-chloro-3,5-dimethylphenoxy)propyl)-1-oxo-6-(1,3,5-trimethyl-1H-pyrazol-4-yl)-3,4-dihydropyrazino[1,2-a]indol-2(1H)-yl)methyl)nicotinic acid]
< 50	Cc1cc(OCCCc2c(C(=O)N3CCC[C@H]3C(=O)O)[nH]c3c(-c4c(C)nn(C)c4C)c(Cl)ccc23)cc(C)c1Cl [I-337, (6-chloro-3-(3-(4-chloro-3,5-dimethylphenoxy)propyl)-7-(1,3,5-trimethyl-1H-pyrazol-4-yl)-1H-indole-2-carbonyl)-L-proline]
< 50	Cc1cc(OCCCc2c3n(c4c(-c5c(C)nn(C)c5C)c(Cl)ccc24)CCCN(c2cc(C(=O)O)c4c(Br)cn(C)c4c2)C3=O)cc(C)c1Cl [I-258, 3-bromo-6-(8-chloro-11-(3-(4-chloro-3,5-dimethylphenoxy)propyl)-1-oxo-7-(1,3,5-trimethyl-1H-pyrazol-4-yl)-4,5-dihydro-1H-[1,4]diazepino[1,2-a]indol-2(3H)-yl)-1-methyl-1H-indole-4-carboxylic acid]

same assay, conditions: Table 2; Ki bins given in μM; FITC-Bak or FITC-Bim peptide competition; Ki converted from IC50; read-out: Ki for Inhibition of Mcl-1

SMILES	Ki [nM]
Cc1cc(OCCCc2c(C(=O)N3CCC(N4CCOCC4)CC3)[nH]c3ccccc23)cc(C)c1Cl [I-47, (3-(3-(4-chloro-3,5-dimethylphenoxy)propyl)-1H-indol-2-yl)(4-morpholinopiperidin-1-yl)methanone]	10000 to 50000
Cc1cc(OCCCc2c(C(=O)N3CCN(c4ccccc4)CC3)[nH]c3ccccc23)cc(C)c1Cl [I-46, (3-(3-(4-chloro-3,5-dimethylphenoxy)propyl)-1H-indol-2-yl)(4-phenylpiperazin-1-yl)methanone]	1000 to 9990
